# Laboratory results reported in patent publication US9737523B2, “Anti-fibrogenic compounds, methods and uses thereof” (priority 2013, dated 2017).
# Columns and labels:
# [1] = tested on: MMPs; assay: MMP activity in conditioned media of fibroblasts, SensoLyte 520 generic MMP assay (FRET); type: cell-based, human; conditions: 50 μg/ml, 48 hours
# Procedure: The activity of MMPs was assessed using a F-FAM/QXL™ 520 fluorescence resonance energy transfer (FRET) peptide as the MMP substrate (SensoLyte 520™ generic MMP assay kit, AnaSpec, Inc.™, Fremont, Calif.) according to the manufacturer's protocol. In brief, cells were treated with or without 50 μg/ml of kynurenine for 48 hours. Conditioned media were collected and incubated with 1 mM of APMA (4-aminophenyl-mercuric acetate, in component C, AnaSpect™) at 37° C. for 3 hrs. After activation MMPs with APMA, 50 μl/well in 96-well plate of conditioned media was mixed with 50 μl of MMP substrate solution. After incubated at room temperature for 60 minutes, the fluorescence intensity at EX/EM=490 nm/520 nm in each sample including the substrate control were measured using Infinite F500™ fluorescence microplate reader (Tecan Group Ltd™, Morrisville, N.C.).
# [2] = tested on: ERK1/2; assay: ERK1/2 phosphorylation in dermal fibroblasts, Western blot; type: cell-based, human; conditions: 100 μg/ml
# Procedure: Cells were harvested by Trypsin/EDTA and lysed with cell lysis buffer containing 50 mM Tris-HCl (pH7.40), 150 mM NaCl, 10 mM EDTA, 5 mM EGTA, 1% TritonX-100™, 0.5% Igepal CA-630, 0.025% NaN3 and protease inhibitor cocktail (Sigma™). Cell debris was removed by centrifugation at 20,000×g for 10 minutes. The protein concentration in supernatant was determined using the MicroBCA™ method (Pierce™, Rockford, Ill.). Proteins in supernatant were mixed with protein sample loading buffer (final concentration: 60 mM Tris-HCl (pH 6.80), 2% SDS, 10% glycerol, 1.5% β-mercaptoethanol, 0.002% bromophenol blue) and size fractioned by 10% of SDS-polyacrylamide gel. After proteins were transferred onto nitrocellulose membrane by iBlot™ (Invitrogen Life Technologies™), non-specific binding were blocked with phosphate buffer saline twenty 20 (PBS-T) containing 5% skim milk for 1 hour. The membrane was then incubated with primary antibody overnight. After incubation with a secondary antibody for 1 hour, protein bands were visualized by an enhanced chemiluminescence (ECL™) detection system (Santa Cruz Biotechnology™, Santa Cruz, Calif.). […]
# [3] = tested on: rabbit ear wounds; assay: Rabbit ear hypertrophic scar model, topical application; type: in vivo
# Procedure: Female rabbits (New Zealand white) weighing 4.5-5 kg were used for this study. The protocol was reviewed and approved by the University of British Columbia animal care committees. The rabbit ear model of hypertrophic scar was created as described previously (Rahmani-Neishaboor, et al., 2010). Briefly, 2 rabbits were anesthetized by intramuscular injection of ketamine (22.5 mg/kg) and xylazine (2.5 mg/kg) followed by isoflurane gas through tracheal intubation. Four wounds were created down to bare cartilage on the ventral side of each ear using an 8-mm dermal biopsy punch to remove full-thickness sections of skin. Antibiotics were applied on wounds daily until kynurenine treatment was started.
# Kynureine in CMC gel (Rahmani-Neishaboor et al., 2010) with a concentration of 500 μg/ml was applied topically to the wounds of the experimental group (0.1 ml per wound) daily for 3 weeks starting at 1 week post wounding. The wounds of the control group were received the treatment with an equal amount of cream alone daily.
# Animals were sacrificed on weeks 3 after treatments. Scars (10 mm punch biopsies) were harvested. Each scar was sectioned in two along its longitudinal axis and half of which was processed for routine histological analysis and another half was kept at −80° C. for future use.
# Scar elevation was quantified by measuring Scar Elevation Index (SEI) from the H & E stained tissue section. The SEI is a ratio of total height in the wound tissue to the normal tissue below the hypertrophic scar.
# According to a method previously reported (Gawronskao-Kozak B. et al. 2006), half of 8 mm diameter skin punches were weighed and frozen in −80° C. Skins were homogenized in 2 ml of PBS and stored at 4° C. overnight. The next day, 1 ml of 6N HCl was added and the mixture was heated at 120° C. for 5 hours. 20 μl of cooled samples and 50 μl of chloramine T solution were added to the 96-well plate and incubated at room temperature for 20 minutes. 50 μl of Erlich solution was then added and the mixture was incubated at 65° C. for 15 minutes. Absorbance was read at 570 nm. Hydroxyproline concentration was calculated by a standard curve.
# RNA was extracted by Trizol™ (Invitrogen Life Technologies™). Briefly, 1 ml of Trizol™ was added to the homogenized skin tissue. 250 μl of chloroform was added after the mixture was standed at room temperature for 5 minutes. Top aqueous phase was transferred into a new eppendorf tube after centrifugation for 10 minute at 20,000×g. Equal volume isopropanol was added to the aqueous phase and mixed gently. The pellet was washed with 1 ml of 75% ethanol after centrifugation for 20 minutes. RNA was dissolved in DEPC treated H2O and its concentration was measured by Nanodrop2000™. cDNA was synthesized by cDNA synthesis kit from Roche according to manufacture's introduction using 1 μg of total RNA in each sample. Quantitative real-time PCR for rabbit type-1 α1 collagen, MMP-1 and housekeeper gene β-actin were performed in ViiA7 (Invitrogen™). cDNA samples were added to a PCR reaction master mix containing STBR Green Master Mix™ (Rox) (Roche™, Indianapolis, Ind.). All reactions were performed in duplicate using the following cycle conditions: 1 cycle of 95° C. for 10 minutes, 40 cycles of 95° C. for 15 seconds and 60° C. for 1 minute. The expression level of type-1 α1 collagen and MMP-1 in each sample was normalised to β-actin. RT-PCR primers: rabbit type-1 α1 collagen: 5′-[…]-3′ (Forward), 5′-[…]-3′ (Reverse); MMP-1,5′-[…]-3′ (Forward), 5′-[…]-3′ (Reverse); β-actin, 5′-[…]-3′ (Forward), 5′-[…]-3′(Reverse).
# [4] = 50 μg in 0.1 ml CMC gel daily for three weeks
# [5] = topical, versus no treatment or gel alone
smiles,measurement,setting,value
Nc1ccccc1C(=O)CC(N)C(=O)O (racemic) [kynurenine],mean activity of MMPs in conditioned media versus control media,[1],significantly higher
same,time of peak ERK1/2 activation,[2],8 h
same,ERK1/2 phosphorylation,[2]; different times,phosphorylated
same,collagen content (Massons' trichrome staining),[3]; [4],significant reduction
same,hydroxyproline content (index for tissue collagen content),[3]; [4],significant lower
same,average scar elevation index (SEI),"[3]; 50 μg in 0.1 ml CMC gel daily for three weeks, n=8, vehicle 1.978±0.442, untreated 2.098±0.324",1.172±0.156
same,scarring versus non-treated or vehicle-only wounds,"[3]; 50 μg in 0.1 ml CMC gel daily, after three weeks",significantly less scarring
same,wound closure versus untreated or CMC gel treated controls,"[3]; 50 μg in 0.1 ml CMC gel daily, three weeks from day 8 post-wounding, data not shown",no significant difference
same,expression of MMP-1 in rabbit ear skin (quantitative RT-PCR),[3]; [5],increased
same,expression of type-1 α1 collagen in rabbit ear skin (quantitative RT-PCR),[3]; [5],decreased
